Reference: PubChem BioAssay AID330 (DTP/NCI, 2004)
Values joined by “and” are separate entries in the source; they are usually repeats but may differ in a detail not shown here. Equal values may be shown once. Inconclusive results and toxic doses are left out. The calls were made as follows: active = survival T/C of 150% or more; inactive = T/C below 125% in these data.

Tested on: P388 leukemia ip, CD2F1 mice, survival T/C
Assay: NCI In Vivo Anticancer Drug Screen. Data for tumor model P388 Leukemia (intraperitoneal) in CD2F1 (CDF1) mice
Settings: endpoint: median survival time, higher = longer survival
Method in brief: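 Mice carrying the transplanted tumor received test compound or vehicle. Survival was recorded in each group, and the value is the treated-group measurement divided by that of the vehicle-treated control group.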

[1] = dose: 60.0 mg/kg/injection, schedule: Q01DX005 (ip), vehicle: Klucel (hydroxypropylcellulose) (HPC)
[2] = dose: 120.0 mg/kg/injection, schedule: Q01DX005 (ip), vehicle: Klucel (hydroxypropylcellulose) (HPC)
[3] = dose: 240.0 mg/kg/injection, schedule: Q01DX005 (ip), vehicle: Klucel (hydroxypropylcellulose) (HPC)
[4] = dose: 60.0 mg/kg/injection, schedule: Q01DX005 (ip), vehicle: saline with Tween-80
[5] = dose: 120.0 mg/kg/injection, schedule: Q01DX005 (ip), vehicle: saline with Tween-80
[6] = dose: 100.0 mg/kg/injection, schedule: Q04DX002 (ip), vehicle: Klucel (hydroxypropylcellulose) (HPC)
[7] = dose: 200.0 mg/kg/injection, schedule: Q04DX002 (ip), vehicle: Klucel (hydroxypropylcellulose) (HPC)
[8] = dose: 50.0 mg/kg/injection, schedule: Q01DX009 (ip), vehicle: Klucel (hydroxypropylcellulose) (HPC)
[9] = dose: 6.25 mg/kg/injection, schedule: Q01DX009 (ip), vehicle: saline

Measured: T/C

O=[N+]([O-])c1cc(S(=O)(=O)c2ccc(F)c([N+](=O)[O-])c2)ccc1F
inactive: dose: 3.12 mg/kg/injection, schedule: Q01DX009 (ip), vehicle: Klucel (hydroxypropylcellulose) (HPC) 102 % of control | dose: 6.25 mg/kg/injection, schedule: Q01DX009 (ip), vehicle: Klucel (hydroxypropylcellulose) (HPC) 108 % of control | dose: 12.5 mg/kg/injection, schedule: Q01DX009 (ip), vehicle: Klucel (hydroxypropylcellulose) (HPC) 114 % of control | dose: 25.0 mg/kg/injection, schedule: Q01DX009 (ip), vehicle: Klucel (hydroxypropylcellulose) (HPC) 108 % of control

N/C(=N\N=C\c1cccnc1)SCCCCBr
inactive: dose: 0.78 mg/kg/injection, schedule: Q01DX001 (ip), vehicle: saline 100 % of control | dose: 0.78 mg/kg/injection, schedule: Q01DX009 (ip), vehicle: saline 110 % of control | dose: 1.56 mg/kg/injection, schedule: Q01DX001 (ip), vehicle: saline 101 % of control and 110 % of control | dose: 3.12 mg/kg/injection, schedule: Q01DX001 (ip), vehicle: saline 110 % of control

O=C1C(C2(O)C(=O)Nc3ccccc32)CCCC1C1(O)C(=O)Nc2ccccc21 (stereo not given)
inactive: [1] 90 % of control | [2] 87 % of control | [3] 89 % of control

NC(CCl)C(=O)NO (stereo not given)
inactive: dose: 50.0 mg/kg/injection, schedule: Q01DX009 (ip), vehicle: saline 99 % of control | dose: 100.0 mg/kg/injection, schedule: Q01DX009 (ip), vehicle: saline 96 % of control | dose: 200.0 mg/kg/injection, schedule: Q01DX009 (ip), vehicle: saline 103 % of control

CCCCN(CCCC)c1nsc(N2CCCCC2)n1
inactive: dose: 45.0 mg/kg/injection, schedule: Q01DX009 (ip), vehicle: saline with Tween-80 113 % of control | dose: 90.0 mg/kg/injection, schedule: Q01DX009 (ip), vehicle: saline with Tween-80 117 % of control | dose: 180.0 mg/kg/injection, schedule: Q01DX009 (ip), vehicle: saline with Tween-80 118 % of control

CCC1CCC2CCCCN2CO1 (stereo not given)
inactive: dose: 12.5 mg/kg/injection, schedule: Q01DX005 (ip), vehicle: saline 101 % of control | dose: 25.0 mg/kg/injection, schedule: Q01DX005 (ip), vehicle: saline 118 % of control | dose: 50.0 mg/kg/injection, schedule: Q01DX005 (ip), vehicle: saline 114 % of control and 123 % of control | dose: 100.0 mg/kg/injection, schedule: Q01DX005 (ip), vehicle: saline 114 % of control and 121 % of control

Nc1nnc(-c2ccc(Cl)cc2)o1
inactive: [4] 100 % of control | [5] 110 % of control | dose: 240.0 mg/kg/injection, schedule: Q01DX005 (ip), vehicle: saline with Tween-80 103 % of control

C=C1C(=O)OC2C1C(OC(=O)/C(=C/CO)CO)CC1(CO1)C1CC=C(C)C21 (stereo not given)
inactive: dose: 0.94 mg/kg/injection, schedule: Q01DX005 (ip), vehicle: Klucel (hydroxypropylcellulose) (HPC) 111 % of control | dose: 1.87 mg/kg/injection, schedule: Q01DX005 (ip), vehicle: Klucel (hydroxypropylcellulose) (HPC) 107 % of control | dose: 3.75 mg/kg/injection, schedule: Q01DX005 (ip), vehicle: Klucel (hydroxypropylcellulose) (HPC) 108 % of control

COCC(CC(=O)O)C(C(=O)O)C(=O)O (stereo not given)
inactive: dose: 12.5 mg/kg/injection, schedule: Q01DX009 (ip), vehicle: water 100 % of control | dose: 25.0 mg/kg/injection, schedule: Q01DX009 (ip), vehicle: water 106 % of control | dose: 50.0 mg/kg/injection, schedule: Q01DX009 (ip), vehicle: water 106 % of control | dose: 100.0 mg/kg/injection, schedule: Q01DX009 (ip), vehicle: water 93 % of control | dose: 200.0 mg/kg/injection, schedule: Q01DX009 (ip), vehicle: water 92 % of control

Cc1ccc(N=S(C)C)cc1
inactive: [6] 100 % of control | [7] 101 % of control | dose: 400.0 mg/kg/injection, schedule: Q04DX002 (ip), vehicle: Klucel (hydroxypropylcellulose) (HPC) 113 % of control

CCOC(=O)CN(CCN(CC)CC)c1ccc([N+](=O)[O-])cc1[N+](=O)[O-]
inactive: dose: 100.0 mg/kg/injection, schedule: Q01DX001 (ip), vehicle: other 95 % of control | dose: 200.0 mg/kg/injection, schedule: Q01DX001 (ip), vehicle: other 100 % of control

CCN(CC)C(=Nc1ccc(Cl)c(Cl)c1)SC(NC=O)=C(Cl)Cl
inactive: [1] 100 % of control | [2] 104 % of control | [3] 104 % of control

CN(N=O)P(=O)(Nc1ccccc1)Nc1ccccc1
inactive: dose: 6.25 mg/kg/injection, schedule: Q01DX009 (ip), vehicle: other 100 % of control | dose: 25.0 mg/kg/injection, schedule: Q01DX009 (ip), vehicle: other 100 % of control | dose: 50.0 mg/kg/injection, schedule: Q01DX009 (ip), vehicle: other 100 % of control

CC(C)C1(c2ccsc2)NC(=O)NC1=O (stereo not given)
inactive: [8] 107 % of control | dose: 100.0 mg/kg/injection, schedule: Q01DX009 (ip), vehicle: Klucel (hydroxypropylcellulose) (HPC) 99 % of control | dose: 200.0 mg/kg/injection, schedule: Q01DX009 (ip), vehicle: Klucel (hydroxypropylcellulose) (HPC) 96 % of control

O=C1CCNC(=O)N1OS(=O)(=O)c1ccccc1
inactive: [8] 86 % of control

CCN(CC)CCOC(=O)CC1CCCCC1
inactive: dose: 50.0 mg/kg/injection, schedule: Q01DX009 (ip), vehicle: saline with Tween-80 102 % of control | dose: 100.0 mg/kg/injection, schedule: Q01DX009 (ip), vehicle: saline with Tween-80 100 % of control | dose: 200.0 mg/kg/injection, schedule: Q01DX009 (ip), vehicle: saline with Tween-80 99 % of control

OCC1OC(n2c(=S)[nH]c3ccccc32)C(O)C1O (stereo not given)
inactive: [4] 98 % of control | [5] 98 % of control

COc1ccc2c(c1OC)C(=O)O/C2=C\c1cc2c(cc1CCN(C)C)OCO2
inactive: dose: 12.5 mg/kg/injection, schedule: Q01DX001 (ip), vehicle: saline + alcohol 99 % of control | dose: 25.0 mg/kg/injection, schedule: Q01DX001 (ip), vehicle: saline + alcohol 98 % of control | dose: 50.0 mg/kg/injection, schedule: Q01DX001 (ip), vehicle: saline + alcohol 99 % of control

COCCN1C(N)=C(C#N)C=C2CCCC(N=C(C#N)C#N)=C21
inactive: [4] 101 % of control | dose: 100.0 mg/kg/injection, schedule: Q01DX005 (ip), vehicle: saline with Tween-80 102 % of control | dose: 200.0 mg/kg/injection, schedule: Q01DX005 (ip), vehicle: saline with Tween-80 102 % of control

O=C(O)c1ccnc2c1ccc1ccccc12
inactive: [6] 103 % of control | [7] 94 % of control

Cc1ccc(Oc2ccc(C(=O)C(CN(C)C)CN(C)C)cc2)cc1
inactive: dose: 1.88 mg/kg/injection, schedule: Q01DX005 (ip), vehicle: saline 107 % of control | dose: 3.75 mg/kg/injection, schedule: Q01DX005 (ip), vehicle: saline 110 % of control | dose: 7.5 mg/kg/injection, schedule: Q01DX005 (ip), vehicle: saline 112 % of control and 121 % of control

CCCCCCCCOc1ccc(/C=C/C(C)=N/NC(N)=NC)cc1OC
inactive: dose: 7.5 mg/kg/injection, schedule: Q01DX005 (ip), vehicle: saline with Tween-80 111 % of control | dose: 15.0 mg/kg/injection, schedule: Q01DX005 (ip), vehicle: saline with Tween-80 95 % of control | dose: 30.0 mg/kg/injection, schedule: Q01DX005 (ip), vehicle: saline with Tween-80 102 % of control

Cc1c(C2=C(Br)C(=O)N(C)C2=O)c(=O)n(C)c(=O)n1C
inactive: [1] 111 % of control | [2] 118 % of control

Cc1cnc(C)c(NN=O)n1
inactive: dose: 3.12 mg/kg/injection, schedule: Q01DX009 (ip), vehicle: saline 101 % of control and 108 % of control | [9] 116 % of control and 122 % of control | dose: 12.5 mg/kg/injection, schedule: Q01DX009 (ip), vehicle: saline 117 % of control

CN=C(N)NCCCCCCCCNC(N)=NC
inactive: dose: 3.13 mg/kg/injection, schedule: Q01DX009 (ip), vehicle: saline with Tween-80 112 % of control | dose: 3.13 mg/kg/injection, schedule: Q01DX009 (ip), vehicle: saline 124 % of control | dose: 6.25 mg/kg/injection, schedule: Q01DX009 (ip), vehicle: saline with Tween-80 109 % of control | [9] 109 % of control | dose: 12.5 mg/kg/injection, schedule: Q01DX009 (ip), vehicle: saline with Tween-80 112 % of control | dose: 25.0 mg/kg/injection, schedule: Q01DX009 (ip), vehicle: saline 87 % of control

Cc1ncc(CN2CSC(CCO)C2C)c(N)n1 (stereo not given)
inactive: [1] 100 % of control | [2] 106 % of control | [3] 105 % of control
